The target of assay [1] is Acetylcholinesterase (Homo sapiens, UniProt P22303).
Description: Inhibition of human AChE assessed as acetylthiocholine hydrolysis
The target in assay [2] is Cholinesterase (Homo sapiens, UniProt P06276).
Description: Inhibition of human BChE assessed as acetylthiocholine hydrolysis
Assay [3] addresses Amyloid-beta precursor protein (Homo sapiens, UniProt P05067).
Description: Inhibition of self mediated amyloid beta (1 to 42) aggregation (unknown origin) after 10 hrs by ThT-based fluorescence assay
Assay [4] concerns the target Beta-secretase 1 (Homo sapiens, UniProt P56817).

pIC50, pKi: −log10 of the molar value.

Sequence of Acetylcholinesterase (P22303 whole entry): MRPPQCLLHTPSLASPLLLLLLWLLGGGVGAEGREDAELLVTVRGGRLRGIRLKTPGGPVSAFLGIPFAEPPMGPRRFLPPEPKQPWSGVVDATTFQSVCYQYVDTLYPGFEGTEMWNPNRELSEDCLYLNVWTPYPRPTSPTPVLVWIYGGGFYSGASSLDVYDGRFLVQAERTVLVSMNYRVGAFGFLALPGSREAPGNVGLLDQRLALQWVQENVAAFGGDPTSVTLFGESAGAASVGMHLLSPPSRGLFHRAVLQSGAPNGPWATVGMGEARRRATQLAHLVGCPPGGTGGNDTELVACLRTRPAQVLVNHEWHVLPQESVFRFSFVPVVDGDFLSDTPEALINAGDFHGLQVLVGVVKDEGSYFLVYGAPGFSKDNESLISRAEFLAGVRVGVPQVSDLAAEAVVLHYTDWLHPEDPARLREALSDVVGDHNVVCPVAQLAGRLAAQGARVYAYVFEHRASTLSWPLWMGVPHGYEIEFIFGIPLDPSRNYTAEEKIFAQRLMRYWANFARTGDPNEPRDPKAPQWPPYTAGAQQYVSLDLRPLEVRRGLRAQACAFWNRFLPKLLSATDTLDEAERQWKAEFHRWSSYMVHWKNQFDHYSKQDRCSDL
Sequence of Amyloid-beta precursor protein (P05067 whole entry): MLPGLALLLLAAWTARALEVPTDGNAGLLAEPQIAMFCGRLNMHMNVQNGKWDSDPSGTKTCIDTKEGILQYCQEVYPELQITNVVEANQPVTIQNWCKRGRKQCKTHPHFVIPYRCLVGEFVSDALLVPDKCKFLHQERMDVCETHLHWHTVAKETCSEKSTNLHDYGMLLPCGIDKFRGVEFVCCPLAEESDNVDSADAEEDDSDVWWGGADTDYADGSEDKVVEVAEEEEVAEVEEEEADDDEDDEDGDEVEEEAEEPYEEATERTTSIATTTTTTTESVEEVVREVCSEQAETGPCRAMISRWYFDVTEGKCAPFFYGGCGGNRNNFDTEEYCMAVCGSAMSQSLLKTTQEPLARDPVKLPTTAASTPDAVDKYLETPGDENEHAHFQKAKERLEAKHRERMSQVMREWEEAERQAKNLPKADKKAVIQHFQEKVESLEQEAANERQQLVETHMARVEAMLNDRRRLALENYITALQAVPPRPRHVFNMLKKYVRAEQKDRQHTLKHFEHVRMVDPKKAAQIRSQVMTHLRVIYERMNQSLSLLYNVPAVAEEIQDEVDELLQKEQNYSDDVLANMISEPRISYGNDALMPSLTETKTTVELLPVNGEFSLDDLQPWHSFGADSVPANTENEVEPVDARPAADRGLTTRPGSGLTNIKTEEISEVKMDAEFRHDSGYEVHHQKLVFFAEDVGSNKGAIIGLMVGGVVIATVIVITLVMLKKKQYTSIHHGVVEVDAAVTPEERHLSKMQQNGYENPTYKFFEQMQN
Sequence of Beta-secretase 1 (P56817 whole entry): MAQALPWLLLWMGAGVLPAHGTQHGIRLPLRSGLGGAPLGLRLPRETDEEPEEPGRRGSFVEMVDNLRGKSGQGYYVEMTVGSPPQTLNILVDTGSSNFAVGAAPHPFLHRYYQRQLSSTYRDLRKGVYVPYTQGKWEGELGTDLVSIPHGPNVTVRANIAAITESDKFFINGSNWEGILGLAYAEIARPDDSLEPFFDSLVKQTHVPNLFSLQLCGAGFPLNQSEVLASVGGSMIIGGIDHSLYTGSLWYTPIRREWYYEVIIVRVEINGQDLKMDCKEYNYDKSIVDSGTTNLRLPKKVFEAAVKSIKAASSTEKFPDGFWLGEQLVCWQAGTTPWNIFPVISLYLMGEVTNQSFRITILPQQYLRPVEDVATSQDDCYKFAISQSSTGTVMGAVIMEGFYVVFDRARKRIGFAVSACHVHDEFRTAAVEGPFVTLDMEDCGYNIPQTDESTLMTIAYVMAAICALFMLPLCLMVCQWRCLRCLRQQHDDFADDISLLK
Sequence of Cholinesterase (P06276 whole entry): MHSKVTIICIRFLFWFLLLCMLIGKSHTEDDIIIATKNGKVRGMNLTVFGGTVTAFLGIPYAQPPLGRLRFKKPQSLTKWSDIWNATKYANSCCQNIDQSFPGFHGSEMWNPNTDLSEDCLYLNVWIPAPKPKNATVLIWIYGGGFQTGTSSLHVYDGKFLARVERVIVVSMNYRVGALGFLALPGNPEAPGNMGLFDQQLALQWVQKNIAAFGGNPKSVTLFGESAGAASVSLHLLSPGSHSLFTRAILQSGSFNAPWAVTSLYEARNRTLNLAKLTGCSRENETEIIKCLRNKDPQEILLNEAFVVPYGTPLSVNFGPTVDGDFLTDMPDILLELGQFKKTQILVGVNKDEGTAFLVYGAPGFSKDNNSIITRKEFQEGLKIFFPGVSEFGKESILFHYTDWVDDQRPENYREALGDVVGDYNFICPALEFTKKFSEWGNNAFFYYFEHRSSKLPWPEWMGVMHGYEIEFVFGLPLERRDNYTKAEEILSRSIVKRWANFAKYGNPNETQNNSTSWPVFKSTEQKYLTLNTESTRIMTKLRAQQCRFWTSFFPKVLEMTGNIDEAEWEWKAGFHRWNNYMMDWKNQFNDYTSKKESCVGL

In the case of `O=C(NCCCCCNc1c2c(nc3ccccc13)CCCC2)c1cc2ccccc2oc1=O`, the negative logarithm of the Ki (pKi) was 7.46 in assay [1] and 7.50 in assay [2]. Further, the pIC50 in assay [3] is < 4.00; in assay [4] it was 4.40.

On to `COc1ccc2cc(C(=O)NCCCCCNc3c4c(nc5ccccc35)CCCC4)c(=O)oc2c1`, for which the results for the pKi in assay [1] and in assay [2] were 7.35 and 7.53, respectively.

For `COc1ccc2oc(=O)c(C(=O)NCCCCCNc3c4c(nc5ccccc35)CCCC4)cc2c1`, the pKi was 7.40 in assay [1] and 7.47 in assay [2].

For `Cc1ccc2oc(=O)c(C(=O)NCCCCCNc3c4c(nc5ccccc35)CCCC4)cc2c1`, the results for the pKi in assay [1] and in assay [2] were 7.45 and 7.49, respectively.

With `COc1cc2cc(C(=O)NCCCCCNc3c4c(nc5ccccc35)CCCC4)c(=O)oc2cc1OC`, the pKi in assay [1] is 7.15; in assay [2], 8.09.

As to `O=C(NCCCCCNc1c2c(nc3ccccc13)CCCC2)c1cc2cc(OC(F)(F)F)ccc2oc1=O`, the values for the pKi in assay [1] and in assay [2] were 7.12 and 7.49, respectively.

For `O=C(NCCCCCCNc1c2c(nc3ccccc13)CCCC2)c1cc2ccccc2oc1=O`, the negative-log Ki (pKi) in assay [1] is 7.78; in assay [2] it was 7.79. Moreover, the results for the pIC50 in assay [3] and in assay [4] were < 4.00 and 4.76, respectively.

In the case of `COc1ccc2cc(C(=O)NCCCCCCNc3c4c(nc5ccccc35)CCCC4)c(=O)oc2c1`, the figures for the pKi in assay [1] and in assay [2] were 7.51 and 7.69, respectively.

For the compound `COc1ccc2oc(=O)c(C(=O)NCCCCCCNc3c4c(nc5ccccc35)CCCC4)cc2c1`, the figures for the pKi in assay [1] and in assay [2] were 7.61 and 7.63, respectively.

As to `Cc1ccc2oc(=O)c(C(=O)NCCCCCCNc3c4c(nc5ccccc35)CCCC4)cc2c1`, the pKi was 7.52 in assay [1] and 7.63 in assay [2]. Moreover, the pIC50 in assay [3] was 5.30; in assay [4], < 4.00.

Consider `COc1cc2cc(C(=O)NCCCCCCNc3c4c(nc5ccccc35)CCCC4)c(=O)oc2cc1OC`, for which the pKi in assay [1] was 7.25; in assay [2], 7.51.

As to `O=C(NCCCCCCNc1c2c(nc3ccccc13)CCCC2)c1cc2cc(OC(F)(F)F)ccc2oc1=O`, the pKi in assay [1] was 7.22; in assay [2] it was 7.76. Further, the pIC50 in assay [3] is 4.62; in assay [4], 4.65.

`O=C(NCCCCCCCNc1c2c(nc3ccccc13)CCCC2)c1cc2ccccc2oc1=O`: the results for the negative logarithm of the Ki (pKi) in assay [1] and in assay [2] were 7.37 and 7.70, respectively.

As to `COc1ccc2cc(C(=O)NCCCCCCCNc3c4c(nc5ccccc35)CCCC4)c(=O)oc2c1`, the figures for the pKi in assay [1] and in assay [2] were 7.26 and 7.46, respectively.

In the case of `COc1ccc2oc(=O)c(C(=O)NCCCCCCCNc3c4c(nc5ccccc35)CCCC4)cc2c1`, the pKi in assay [1] was 7.29; in assay [2], 7.46. Further, the pIC50 in assay [3] is 4.87; in assay [4] it was 4.69.

`Cc1ccc2oc(=O)c(C(=O)NCCCCCCCNc3c4c(nc5ccccc35)CCCC4)cc2c1`: the negative logarithm of the Ki (pKi) was 7.18 in assay [1] and 7.29 in assay [2]. Also, the values for the pIC50 in assay [3] and in assay [4] were 5.21 and 4.37, respectively.

Take `COc1cc2cc(C(=O)NCCCCCCCNc3c4c(nc5ccccc35)CCCC4)c(=O)oc2cc1OC`: the pKi in assay [1] was 7.04; in assay [2] it was 7.43.

In the case of `O=C(NCCCCCCCNc1c2c(nc3ccccc13)CCCC2)c1cc2cc(OC(F)(F)F)ccc2oc1=O`, the pKi in assay [1] was 7.11; in assay [2], 7.40.

For orientation: pKi means the negative decadic logarithm of the Ki, by convention in mol/L. Low readings indicate a large Ki, high ones a small Ki. In general, pIC50 refers to the negative decadic logarithm of the IC50, by convention in mol/L. A higher pIC50 goes with a low IC50.

For the origin of these results see ChEMBL document CHEMBL3352817, “Syntheses of coumarin-tacrine hybrids as dual-site acetylcholinesterase inhibitors and their activity against butylcholinesterase, Aβ aggregation, and β-secretase” (Bioorg Med Chem, 2014).
